Test results: ChEMBL document CHEMBL1201862, “PubChem BioAssay data set” (2004)
Where “and” joins values, the source holds several entries; their conditions need not be identical. Equal values may be shown once. Where a name gives a salt, the structure may show the parent alone.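 Following 48 hours of exposure in 96-well plates, responses at five concentrations were used to interpolate endpoints linearly. Here, GI50 denotes the concentration required for 50% inhibition of growth.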 Calls of active or inactive are those of the source. Rule as the data show it: active = GI50 up to about 1.1 µM and inactive = higher. Starred links: 1 amine or outer side, 2 acyl side, 3 side chain; linkers in the order of their positions; H or OH if unused. Residues, ends and D or L forms follow the SMILES beside them. *: point of attachment. γGlu = O=C(O)[CH](CCC(=O)[*:2])N[*:1]; NHOH = ON*

Key:
Assay in all cases: DTP human tumour cell line panel, 48 h
[1] = tested on: HOP-62
[2] = tested on: NCI-H522
[3] = tested on: BT-549
[4] = tested on: COLO 205
[5] = tested on: RXF 393
[6] = tested on: NCI-H226
[7] = tested on: NCI-H23
[8] = tested on: SF-268
[9] = tested on: MCF7
[10] = tested on: M14
[11] = tested on: MDA-MB-435
[12] = tested on: Hs-578T
[13] = tested on: A549
[14] = tested on: UO-31
[15] = tested on: SK-OV-3
[16] = tested on: HT-29
[17] = tested on: Malme-3M
[18] = tested on: ACHN
[19] = tested on: A498

| Compound | GI50 [1] | GI50 [2] | GI50 [3] | GI50 [4] | GI50 [5] | GI50 [6] | GI50 [7] | GI50 [8] | GI50 [9] | GI50 [10] | GI50 [11] | GI50 [12] | GI50 [13] | GI50 [14] | GI50 [15] | GI50 [16] | GI50 [17] | GI50 [18] | GI50 [19] |
| --- | --- | --- | --- | --- | --- | --- | --- | --- | --- | --- | --- | --- | --- | --- | --- | --- | --- | --- | --- |
| CCN(CC)c1nc(N(C)C)c2ccccc2n1 | 49.3 µM (inactive) | 18.5 µM (inactive) | 48.1 µM (inactive) | 19.4 µM (inactive) | 24 µM (inactive) | 15.9 µM (inactive) | 23.2 µM (inactive) | 52.2 µM (inactive) | 29.2 µM (inactive) | 15.6 µM (inactive) | 28.9 µM (inactive) | 53.3 µM (inactive) | 25.8 µM (inactive) | 19.3 µM (inactive) | 38.8 µM (inactive) | 11.6 µM (inactive) | 41.1 µM (inactive) | 27.9 µM (inactive) |  |
| COc1ccc(OC)c2sc(N3C(=O)/C(=C/c4cccc(Oc5ccccc5)c4)N=C3c3ccccc3)nc12 | > 100 µM (inactive) | 53.7 µM (inactive) | > 100 µM (inactive) | 51.8 µM (inactive) | > 100 µM (inactive) |  | > 100 µM (inactive) | > 100 µM (inactive) | 35.2 µM (inactive) | > 100 µM (inactive) | 29.3 µM (inactive) | > 100 µM (inactive) | > 100 µM (inactive) | > 100 µM (inactive) | > 100 µM (inactive) | > 100 µM (inactive) | > 100 µM (inactive) | > 100 µM (inactive) | > 100 µM (inactive) |
| CC(=O)Nc1oc(C)c(C)c1S(=O)(=O)c1ccc(Cl)cc1 |  | 37.7 µM (inactive) | 29.2 µM (inactive) | 72.8 µM (inactive) | 69.7 µM (inactive) | 34.4 µM (inactive) | 43.3 µM (inactive) | 33.7 µM (inactive) | 19.5 µM (inactive) | 63.8 µM (inactive) | 33.5 µM (inactive) | 33.4 µM (inactive) | 52 µM (inactive) | 39 µM (inactive) | 52.5 µM (inactive) | 49 µM (inactive) | 40.2 µM (inactive) | 46.2 µM (inactive) | > 100 µM (inactive) |
| COc1cc(-c2c(C(C)=O)c(-c3ccccc3)n(C3OC(COC(C)=O)C(OC(C)=O)C(OC(C)=O)C3OC(C)=O)c(=S)c2C#N)ccc1O (centres undefined) | > 100 µM (inactive) |  | 33.1 µM (inactive) | 97.1 µM (inactive) | > 100 µM (inactive) and 78.5 µM (inactive) |  | 72.8 µM (inactive) | > 100 µM (inactive) | > 100 µM (inactive) and 81.5 µM (inactive) | > 100 µM (inactive) | 57.1 µM (inactive) and 35.4 µM (inactive) | 70.6 µM (inactive) | > 100 µM (inactive) and 88.7 µM (inactive) | > 100 µM (inactive) and 55.1 µM (inactive) |  | 76.6 µM (inactive) and 76.9 µM (inactive) |  | 55.3 µM (inactive) | > 100 µM (inactive) |
| COC(=O)[C@@H]1Cc2ccc(OC)c(c2)OCCC(=O)N1 | > 100 µM (inactive) | > 100 µM (inactive) | > 100 µM (inactive) | > 100 µM (inactive) | > 100 µM (inactive) | > 100 µM (inactive) | > 100 µM (inactive) | > 100 µM (inactive) | > 100 µM (inactive) | > 100 µM (inactive) | > 100 µM (inactive) | > 100 µM (inactive) | > 100 µM (inactive) | > 100 µM (inactive) | > 100 µM (inactive) | > 100 µM (inactive) | > 100 µM (inactive) | > 100 µM (inactive) |  |
| COc1ccc(-c2cc(-c3ccco3)c(C#N)c(=S)n2C2OC(COC(C)=O)C(OC(C)=O)C(OC(C)=O)C2OC(C)=O)cc1 (centres undefined) | 2.61 µM (inactive) | 4.56 µM (inactive) | 2.82 µM (inactive) | 4.36 µM (inactive) | 9.53 µM (inactive) | 5.7 µM (inactive) | 9.71 µM (inactive) | 8.45 µM (inactive) | 23.6 µM (inactive) | 5.27 µM (inactive) | 7.71 µM (inactive) | 3.15 µM (inactive) | 5.9 µM (inactive) | 13.7 µM (inactive) | 13.8 µM (inactive) | 3.24 µM (inactive) | 5.18 µM (inactive) | 6.82 µM (inactive) |  |
| O=[N+]([O-])c1ccc2sc(/C=N/c3cnccn3)cc2c1 | 29.1 µM (inactive) | 32.5 µM (inactive) | 85.7 µM (inactive) | 39.8 µM (inactive) | 0.597 µM (active) |  | 63 µM (inactive) | 27.2 µM (inactive) | 5.74 µM (inactive) | 37.2 µM (inactive) | 18.4 µM (inactive) | 16.7 µM (inactive) | 64.9 µM (inactive) | 24.1 µM (inactive) | 30.4 µM (inactive) | 39.2 µM (inactive) | 37 µM (inactive) | 30.9 µM (inactive) | 27.4 µM (inactive) |
| CCOC(OCC)C(CCc1ccccc1)c1c(N)nc(N)[nH]c1=O (centres undefined) | > 100 µM (inactive) |  | 86.9 µM (inactive) | 17.4 µM (inactive) | 57.7 µM (inactive) | 41.2 µM (inactive) | 79.8 µM (inactive) | 52 µM (inactive) | 33.1 µM (inactive) | 80.5 µM (inactive) | 32.4 µM (inactive) | > 100 µM (inactive) | 54.1 µM (inactive) | 34.8 µM (inactive) | 25.9 µM (inactive) | 55.1 µM (inactive) | > 100 µM (inactive) |  | > 100 µM (inactive) |
| CCOC(=O)CC(=O)Nc1cccc2sc3ncccc3c(=O)c12 | 33 µM (inactive) | 45.4 µM (inactive) | 43.4 µM (inactive) | 68.2 µM (inactive) | 3.09 µM (inactive) | 27.9 µM (inactive) | 32 µM (inactive) | 36.2 µM (inactive) | 0.57 µM (active) | 87.1 µM (inactive) | 44.7 µM (inactive) | 19.1 µM (inactive) | 18.4 µM (inactive) | 25.7 µM (inactive) | 22.4 µM (inactive) | 38.8 µM (inactive) | 54.6 µM (inactive) | 33.3 µM (inactive) |  |
| COc1ccc(C(=O)/C=C2\c3ccccc3C(=O)N2C)cc1 | 60.4 µM (inactive) | 31.9 µM (inactive) | 68.1 µM (inactive) | 55 µM (inactive) | 22.9 µM (inactive) |  | 55.3 µM (inactive) | 61.2 µM (inactive) | 21 µM (inactive) | 48.6 µM (inactive) | 36.9 µM (inactive) | 90.6 µM (inactive) | 58.6 µM (inactive) | 44.3 µM (inactive) | 74.8 µM (inactive) | 35.6 µM (inactive) | 31.7 µM (inactive) | 89.5 µM (inactive) | 69 µM (inactive) |
| COC(=O)CC(c1cn(S(=O)(=O)c2ccc(C)cc2)c2ccccc12)C1C[C@@H](C(=O)OC)N(C(=O)OC(C)(C)C)C1=O (some centres undefined) | > 100 µM (inactive) | 55.3 µM (inactive) | > 100 µM (inactive) | 26.7 µM (inactive) | 9.79 µM (inactive) | > 100 µM (inactive) | 66.8 µM (inactive) | 53.6 µM (inactive) | 33.5 µM (inactive) | > 100 µM (inactive) | 41 µM (inactive) | > 100 µM (inactive) | 27 µM (inactive) | 45.6 µM (inactive) |  | 26.7 µM (inactive) | 83.4 µM (inactive) | 12.5 µM (inactive) | 71.4 µM (inactive) |
| CCS(=O)(=O)CCn1c(=O)c2c(ncn2C)n(C)c1=O | > 100 µM (inactive) | > 100 µM (inactive) | > 100 µM (inactive) | > 100 µM (inactive) | > 100 µM (inactive) |  | > 100 µM (inactive) | > 100 µM (inactive) | > 100 µM (inactive) | > 100 µM (inactive) | > 100 µM (inactive) | > 100 µM (inactive) | > 100 µM (inactive) | > 100 µM (inactive) |  | > 100 µM (inactive) | > 100 µM (inactive) | > 100 µM (inactive) | > 100 µM (inactive) |
| CC1(C)N=C(N)N=C(N)N1c1cccc(Cl)c1 | 4.85 µM (inactive) | 5.87 µM (inactive) | 6.71 µM (inactive) | 5.35 µM (inactive) | > 100 µM (inactive) |  | 3.22 µM (inactive) | 1.14 µM (inactive) | 4.6 µM (inactive) | 0.877 µM (active) | 0.604 µM (active) | > 100 µM (inactive) | 2.41 µM (inactive) | 15.5 µM (inactive) | > 100 µM (inactive) | 0.785 µM (active) | 9.82 µM (inactive) | 5.21 µM (inactive) | > 100 µM (inactive) |
| CCOC(=O)CNC(=O)C(CCC(=O)NO)NC(=O)CCC(N)C(=O)O (centres undefined) (γGlu-Glu(NHOH)-Gly-OEt; configuration not given here) | > 100 µM (inactive) | > 100 µM (inactive) | > 100 µM (inactive) | > 100 µM (inactive) | > 100 µM (inactive) | > 100 µM (inactive) | > 100 µM (inactive) | > 100 µM (inactive) | > 100 µM (inactive) | > 100 µM (inactive) | > 100 µM (inactive) | > 100 µM (inactive) | > 100 µM (inactive) | > 100 µM (inactive) | > 100 µM (inactive) | > 100 µM (inactive) |  | > 100 µM (inactive) | > 100 µM (inactive) |
| COc1ccc(Cc2nccc3cc(OC)c(OC)cc23)cc1OC [PAPAVERINE HYDROCHLORIDE] | 43.8 µM (inactive) | > 100 µM (inactive) | 53.8 µM (inactive) | > 100 µM (inactive) |  | 43.5 µM (inactive) | 19.8 µM (inactive) | > 100 µM (inactive) | > 100 µM (inactive) | > 100 µM (inactive) | > 100 µM (inactive) | > 100 µM (inactive) | > 100 µM (inactive) | 78.7 µM (inactive) | > 100 µM (inactive) | 41.3 µM (inactive) |  | 63 µM (inactive) | 77.3 µM (inactive) |
